Data: patent US20140186376A1, “Compositions and Methods for Inhibiting CCL3” (University of Rochester, priority 2012, published 2014)

System: osteoclasts
Test: Zoledronic acid treatment of normal mice: serum bone markers (ELISA) and micro-CT bone volumes
Type: in vivo
Details: normal ZA-treated mice; 0.25 mg/kg i.p. bi-weekly; vehicle 142±28; p=0.0296
Experimental: The right hindlimb of each mouse was fixed in 10% Formalin for 48 hours, and then stored in 70% ethanol at 4° C. MicroCT analysis was performed as previously described (2009, Frisch et al., Blood 114:4054-4063).
All ELISAs were performed as indicated by the manufacturer's instructions. CTX measurements were performed using the RatLaps ELISA (AC-06F1, Immunodiagnostic Systems Inc.). TRACP 5b measurement was performed using Mouse TRAP ELISA (SB-TR103, Immunodiagnostic Systems Inc.). Osteocalcin measurement performed using the Mouse Osteocalcin EIA kit (BT-470, Biomedical Technologies). Bovine CTX from bone wafer culture media was measured using the Crosslaps® for Culture ELISA (AC-07F1, Immunodiagnostic Systems Inc.). Murine CCL3 protein measurement was performed using the Mouse CCL3/MIP-1 alpha Quantikine ELISA Kit (MMA00, R&D systems). Human CCL3 protein measurement was performed using the Human CCL3/MIP-1 alpha Quantikine ELISA Kit (DMA00, R&D systems).
Mice were given a 0.25 mg/kg intraperitoneal injection of zoledronic acid (ZA) bi-weekly for 2 weeks prior to induction of disease and throughout the course of the disease.

## O=P(O)(O)C(O)(Cn1ccnc1)P(=O)(O)O [ZA, Zoledronic acid]
  serum levels of osteocalcin: 49 ± 1 ng/mL
